Reference: patent US8802712B2, “Pyrazoloquinolines” (Merck Patent GmbH, priority 2010, dated 2014)

Target: DNA-PK (Homo sapiens (Human), UniProt P78527)
Experiment: DNA-PK/Biochemical Assay (FlashPlate kinase assay)
Settings: 5 μM ATP, 90 min, room temperature
Method: The kinase assay was carried out in streptavidin-coated […] microtitre FlashPlates®. To this end, 1.5 μg of the DNA-PK/protein complex and 100 ng of biotinylated substrate, such as, for example, […] biotin-NH2 (“biotin-DNA-PK peptide”), in a total volume of 36.5 μl (34.25 mM HEPES/KOH, 7.85 mM Tris-HCl, 68.5 mM KCl, 5 μM ATP, 6.85 mM MgCl2, 0.5 mM EDTA, 0.14 mM EGTA, 0.69 mM DTT, pH 7.4), were incubated at room temperature for 90 min with 500 ng of DNA from calf thymus, 0.1 μCi of 33P-ATP and 1.8% of DMSO per well with or without the test compound. The reaction was stopped using 50 μl/well of 200 mM EDTA. After incubation for a further 30 min at room temperature, the liquid was removed. Each well was washed three times with 100 μl of 0.9% sodium chloride solution. A non-specific reaction (blank value) was determined using 10 μM of a proprietary kinase inhibitor. The radioactivity measurement was carried out by means of a TopCount. IC50 values were calculated in RS1. • Literature: Kashishian et al. (2003) Molecular Cancer Therapeutics 1257.

SMILES | IC50
COc1cc2c(cc1OCCN(C)C)ncc1c2c(-c2ccc(C#N)cc2)nn1C [Compound 46, 4-[7-(2-Dimethylamino-ethoxy)-8-methoxy-3-methyl-3H-pyrazolo[3,4-c]quinolin-1-yl]benzonitrile] | > 0.5 µM
COc1cc2ncc3c(c(-c4ccc(C#N)cc4)nn3C)c2cc1OP(=O)(O)c1ccccc1 [Compound 25, 1-(4-Cyanophenyl)-7-methoxy-3-methyl-3H-pyrazolo[3,4-c]quinolin-8-yl phenylphosphonate] | 0.1 to 0.5 µM
COc1cc2ncc3c(c(-c4ccc(C#N)cc4)nn3C)c2cc1OCc1cccs1 [Compound 34, 4-[7-Methoxy-3-methyl-8-(thiophen-2-ylmethoxy)-3H-pyrazolo[3,4-c]quinolin-1-yl]-benzonitrile] | < 0.1 µM
COc1cc2ncc3c(c(-c4ccc(C#N)cc4)nn3C)c2cc1OCc1ccccc1C#N [Compound 14, 4-[8-(2-Cyanobenzyloxy)-7-methoxy-3-methyl-8-3H-pyrazolo[3,4-c]quinolin-1-yl]-benzonitrile] | 0.1 to 0.5 µM
COc1cc2ncc3c(c(-c4ccc(C#N)cc4)nn3C)c2cc1OCc1cccc(N(C)C)c1 [Compound 41, 4-[8-(3-Dimethylamino-benzyloxy)-7-methoxy-3-methyl-3H-pyrazolo[3,4-c]-quinolin-1-yl]benzonitrile] | 0.1 to 0.5 µM
COc1cc2ncc3c(c(-c4ccc(C#N)cc4)nn3C)c2cc1OCc1cnc2[nH]ccc2c1 [Compound 30, 4-[7-Methoxy-3-methyl-8-(1H-pyrrolo[2,3-b]pyridin-5-ylmethoxy)-3H-pyrazolo-[3,4-c]quinolin-1-yl]-benzonitrile] | 0.1 to 0.5 µM
COc1cc2ncc3c(c(-c4ccc(C#N)cc4)nn3C)c2cc1O[C@H](C(N)=O)c1ccc(F)cc1 [Compound 10, (S)-2-[1-(4-Cyanophenyl)-7-methoxy-3-methyl-3H-pyrazolo[3,4-c]quinolin-8-yloxy]-2-(4-fluorophenyl)-acetamide] | < 0.1 µM
COc1cc2ncc3c(c(-c4ccc(C#N)cc4)nn3C)c2cc1OC(C(=O)O)c1ccc(F)cc1 (centres unmarked) [Compound 19, [1-(4-Cyanophenyl)-7-methoxy-3-methyl-3H-pyrazolo[3,4-c]quinolin-8-yloxy]-(4-fluorophenyl)acetic acid] | < 0.1 µM
COc1cc2ncc3c(c(-c4ccc(C#N)cc4)nn3C)c2cc1OCc1ccc(-n2cncn2)cc1 [Compound 31, 4-[7-Methoxy-3-methyl-8-(4-1,2,4-triazol-1-ylbenzyloxy)-3H-pyrazolo[3,4-c]quinolin-1-yl]benzonitrile] | > 0.5 µM
COc1cc2ncc3[nH]nc(-c4ccc(C#N)cc4)c3c2cc1OC [Compound 1, 4-(7,8-Dimethoxy-3H-pyrazolo[3,4-c]quinolin-1-yl)benzonitrile] | < 0.1 µM
COc1cc2ncc3c(c(-c4ccc(C#N)cc4)nn3C)c2cc1OCc1ccncc1 [Compound 11, 4-[7-Methoxy-3-methyl-8-(pyridin-4-ylmethoxy)-3H-pyrazolo[3,4-c]quinolin-1-yl]-benzonitrile] | < 0.1 µM
COc1cc2ncc3c(c(-c4ccc(C#N)cc4)nn3C)c2cc1OCc1cccc(CN2CCOCC2)c1 [Compound 28, 4-[7-Methoxy-3-methyl-8-(3-morpholin-4-ylmethyl-benzyloxy)-3H-pyrazolo-[3,4-c]quinolin-1-yl]-benzonitrile] | 0.1 to 0.5 µM
COc1cc2ncc3c(c(-c4ccc(C#N)cc4)nn3C)c2cc1OC(C(=O)NCCN(C)C)c1ccc(F)cc1 (centres unmarked) [Compound 49, 2-[1-(4-Cyano-phenyl)-7-methoxy-3-methyl-3H-pyrazolo-[3,4-c]quinolin-8-yl-oxy]-N-(2-dimethyl-aminoethyl)-2-(4-fluorophenyl)-acetamide] | 0.1 to 0.5 µM
COc1cc2ncc3c(c(-c4ccc(C#N)cc4)nn3C)c2cc1OC [Compound 2, 4-(7,8-Dimethoxy-3-methyl-3H-pyrazolo-[3,4-c]quinolin-1-yl)-benzonitrile] | < 0.1 µM
COc1cc2ncc3c(c(-c4ccc(C#N)cc4)nn3C)c2cc1OCc1cc2ccccc2s1 [Compound 37, 4-[8-(Benzo[b]thiophen-2-ylmethoxy)-7-methoxy-3-methyl-3H-pyrazolo[3,4-c]-quinolin-1-yl]benzonitrile] | > 0.5 µM
COc1cc2ncc3c(c(-c4ccc(C#N)cc4)nn3C)c2cc1OCc1cccnc1 [Compound 12, 4-[7-Methoxy-3-methyl-8-(pyridin-3-ylmethoxy)-3H-pyrazolo[3,4-c]quinolin-1-yl]-benzonitrile] | < 0.1 µM
COc1cc2ncc3c(c(-c4ccc(C#N)cc4)nn3C)c2cc1OCc1cscn1 [Compound 42, 4-[7-Methoxy-3-methyl-8-(thiazol-4-ylmethoxy)-3H-pyrazolo[3,4-c]quinolin-1-yl]-benzonitrile] | < 0.1 µM
COc1cc2ncc3c(c(-c4ccc(C#N)cc4)nn3C)c2cc1OCc1ccnc(C#N)c1 [Compound 38, 4-[1-(4-Cyanophenyl)-7-methoxy-3-methyl-3H-pyrazolo[3,4-c]quinolin-8-yl-oxymethyl]pyridine-2-nitrile] | 0.1 to 0.5 µM
COc1cc2ncc3c(c(-c4ccc(C#N)cc4)nn3C)c2cc1OCc1nccs1 [Compound 39, 4-[7-Methoxy-3-methyl-8-(thiazol-2-ylmethoxy)-3H-pyrazolo[3,4-c]quinolin-1-yl]-benzonitrile] | < 0.1 µM
COc1cc2ncc3c(c(-c4ccc(C#N)cc4)nn3C)c2cc1OS(=O)(=O)c1ccc(C)cc1 [Compound 24, 1-(4-Cyanophenyl)-7-methoxy-3-methyl-3H-pyrazolo[3,4-c]quinolin-8-yl toluene-4-sulfonate] | 0.1 to 0.5 µM
COc1cc2ncc3c(c(-c4ccc(C#N)cc4)nn3C)c2cc1OCc1ccc(-n2cccn2)nc1 [Compound 29, 4-[7-Methoxy-3-methyl-8-(6-pyrazol-1-ylpyridin-3-ylmethoxy)-3H-pyrazolo-[3,4-c]quinolin-1-yl]-benzonitrile] | > 0.5 µM
COc1cc2ncc3c(c(-c4ccc(C#N)cc4)nn3C)c2cc1OCc1ccsc1 [Compound 35, 4-[7-Methoxy-3-methyl-8-(thiophen-3-ylmethoxy)-3H-pyrazolo[3,4-c]quinolin-1-yl]-benzonitrile] | < 0.1 µM
COc1cc2ncc3c(c(-c4ccc(C#N)cc4)nn3C)c2cc1OCc1ccc(CO)cc1 [Compound 27, 4-[8-(4-Hydroxymethyl-benzyloxy)-7-methoxy-3-methyl-3H-pyrazolo[3,4-c]-quinolin-1-yl]benzonitrile] | < 0.1 µM
COc1cc2ncc3c(c(-c4ccc(C#N)cc4F)nn3C)c2cc1OC(C(N)=O)c1ccc(F)cc1 (centres unmarked) [Compound 23, 2-[1-(4-Cyano-2-fluoro-phenyl)-7-methoxy-3-methyl-3H-pyrazolo[3,4-c]quinolin-8-yloxy]-2-(4-fluorophenyl)-acetamide] | < 0.1 µM

The remaining lines, values ahead:

IC50 | SMILES
< 0.1 µM | COC(=O)c1cc(-c2[nH]nc3cnc4cc(OC)c(OC)cc4c23)ccc1C#N [Compound 72, 2-Cyano-5-(7,8-dimethoxy-3H-pyrazolo[3,4-c]quinolin-1-yl)benzoic acid methyl ester]
> 0.5 µM | COc1cc2ncc3c(c(-c4ccc(C#N)cc4)nn3C)c2cc1OC(C(=O)NCCN1CCNCC1)c1ccc(F)cc1 (centres unmarked) [Compound 50, 2-[1-(4-Cyano-phenyl)-7-methoxy-3-methyl-3H-pyrazolo-[3,4-c]quinolin-8-yl-oxy]-2-(4-fluoro-phenyl)-N-(2 - piperazin-1-ylethyl)-acetamide]
< 0.1 µM | COCCNC(=O)C(Oc1cc2c(cc1OC)ncc1c2c(-c2ccc(C#N)cc2)nn1C)c1ccc(F)cc1 (centres unmarked) [Compound 55, 2-[1-(4-Cyano-phenyl)-7-methoxy-3-methyl-3H-pyrazolo-[3,4-c]quinolin-8-yloxy]-2-(4-fluoro-phenyl)-N-(2-methoxyethyl)-acetamide]
0.1 to 0.5 µM | CCN1CCN(c2ccc(-c3nn(C)c4cnc5cc(OC)c(OC)cc5c34)cc2)CC1 [Compound 75, 1-[4-(4-Ethylpiperazin-1-yl)-phenyl]-7,8-dimethoxy-3-methyl-3H-pyrazolo[3,4-c]-quinoline]
< 0.1 µM | COc1cc2ncc3c(c(-c4ccc(C#N)cc4F)nn3C)c2cc1-c1cccnc1 [Compound 77, 3-Fluoro-4-(7-methoxy-3-methyl-8-pyridin-3-yl-3H-pyrazolo[3,4-c]-quinolin-1-yl)-benzonitrile]
0.1 to 0.5 µM | CCn1nc(-c2ccc(C#N)cc2F)c2c3cc(OC)c(OC)cc3ncc21 [Compound 57, 4-(3-Ethyl-7,8-dimethoxy-3H-pyrazolo[3,4-c]quinolin-1-yl)-3-fluorobenzonitrile]
0.1 to 0.5 µM | CCCn1nc(-c2ccc(C#N)cc2)c2c3cc(OC)c(OC)cc3ncc21 [Compound 59, 4-(7,8-Dimethoxy-3-propyl-3H-pyrazolo[3,4-c]quinolin-1-yl)-benzonitrile]
< 0.1 µM | COc1cc2ncc3c(c(-c4ccccc4F)nn3C)c2cc1OC [Compound 76, 1-(2-Fluorophenyl)-7,8-dimethoxy-3-methyl-3H-pyrazolo[3,4-c]quinoline]
0.1 to 0.5 µM | COc1cc2ncc3c(c(-c4ccc(C#N)cc4)nn3C#N)c2cc1OC [Compound 65, 1-(4-Cyanophenyl)-7,8-dimethoxypyrazolo[3,4-c]-quinoline-3-carbonitrile]
0.1 to 0.5 µM | COc1cc2ncc3c(c(-c4ccc(C#N)cc4)nn3CC(N)=O)c2cc1OC [Compound 68, 2-[1-(4-Cyanophenyl)-7,8-dimethoxypyrazolo[3,4-c]-quinolin-3-yl]acetamide]
0.1 to 0.5 µM | C=CCn1nc(-c2ccc(C#N)cc2)c2c3cc(OC)c(OC)cc3ncc21 [Compound 63, 4-(3-Allyl-7,8-dimethoxy-3H-pyrazolo[3,4-c]quinolin-1-yl)-benzonitrile]
